Experimental data as given in PubChem BioAssay (NCI).
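Cells were grown in 96-well plates and exposed to each compound for 48 hours at five concentrations; endpoints were interpolated linearly between bracketing concentrations, or set to the highest concentration if not reached. Abbreviation: GI50, concentration required for 50% inhibition of growth. TGI is the concentration that stops growth completely.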

Legend:
Assay in all cases: DTP human tumour cell line panel, 48 h
EKVX NSCLC = tested on: EKVX NSCLC
HOP-62 NSCLC = tested on: HOP-62 NSCLC
UO-31 renal = tested on: UO-31 renal
SNB-75 CNS = tested on: SNB-75 CNS
RXF 393 renal = tested on: RXF 393 renal
U251 CNS = tested on: U251 CNS
OVCAR-4 ovarian = tested on: OVCAR-4 ovarian
NCI-H226 lung = tested on: NCI-H226 lung
MDA-MB-435 = tested on: MDA-MB-435
A498 renal = tested on: A498 renal
SR leukemia = tested on: SR leukemia
TK-10 renal = tested on: TK-10 renal
NCI-H460 lung = tested on: NCI-H460 lung
T-47D breast = tested on: T-47D breast
SNB-19 CNS = tested on: SNB-19 CNS
M14 melanoma = tested on: M14 melanoma
UACC-62 melanoma = tested on: UACC-62 melanoma
PC-3 prostate = tested on: PC-3 prostate
NCI-H23 lung = tested on: NCI-H23 lung
HT29 colon = tested on: HT29 colon
HCC-2998 colon = tested on: HCC-2998 colon
HCT-15 colon = tested on: HCT-15 colon
MALME-3M melanoma = tested on: MALME-3M melanoma
SF-539 CNS = tested on: SF-539 CNS
UACC-257 melanoma = tested on: UACC-257 melanoma
SK-MEL-5 melanoma = tested on: SK-MEL-5 melanoma
CAKI-1 renal = tested on: CAKI-1 renal
MDA-MB-231 breast = tested on: MDA-MB-231 breast
KM12 colon = tested on: KM12 colon
SW-620 colon = tested on: SW-620 colon
MOLT-4 leukemia = tested on: MOLT-4 leukemia
COLO 205 colon = tested on: COLO 205 colon
OVCAR-5 ovarian = tested on: OVCAR-5 ovarian
HL-60(TB) leukemia = tested on: HL-60(TB) leukemia
SN12C renal = tested on: SN12C renal
ACHN renal = tested on: ACHN renal
OVCAR-8 ovarian = tested on: OVCAR-8 ovarian
SK-MEL-28 melanoma = tested on: SK-MEL-28 melanoma
HCT-116 colon = tested on: HCT-116 colon
IGROV1 ovarian = tested on: IGROV1 ovarian
SK-MEL-2 melanoma = tested on: SK-MEL-2 melanoma
OVCAR-3 ovarian = tested on: OVCAR-3 ovarian
LOX IMVI melanoma = tested on: LOX IMVI melanoma
DU-145 prostate = tested on: DU-145 prostate
K-562 leukemia = tested on: K-562 leukemia
SF-268 CNS = tested on: SF-268 CNS
CCRF-CEM leukemia = tested on: CCRF-CEM leukemia
BT-549 breast = tested on: BT-549 breast
NCI-H522 lung = tested on: NCI-H522 lung
MCF7 breast = tested on: MCF7 breast
786-0 renal = tested on: 786-0 renal
SF-295 CNS = tested on: SF-295 CNS
A549 NSCLC = tested on: A549 NSCLC
RPMI-8226 leukemia = tested on: RPMI-8226 leukemia
HOP-92 NSCLC = tested on: HOP-92 NSCLC
NCI/ADR-RES ovarian = tested on: NCI/ADR-RES ovarian
HS 578T breast = tested on: HS 578T breast
SK-OV-3 ovarian = tested on: SK-OV-3 ovarian

## CC(C)(CO)CNC(=O)c1ccc2[nH]c(O)c(N=Nc3ccc(S(N)(=O)=O)cc3)c2c1
EKVX NSCLC
  GI50: > 25 µM
  TGI: > 25 µM
HOP-62 NSCLC
  GI50: > 25 µM
  TGI: > 25 µM
UO-31 renal
  GI50: > 25 µM
  TGI: > 25 µM
SNB-75 CNS
  GI50: > 25 µM
  TGI: > 25 µM
RXF 393 renal
  GI50: > 25 µM
  TGI: > 25 µM
U251 CNS
  GI50: > 25 µM
  TGI: > 25 µM
OVCAR-4 ovarian
  GI50: > 25 µM
  TGI: > 25 µM
NCI-H226 lung
  GI50: > 25 µM
  TGI: > 25 µM
MDA-MB-435
  GI50: > 25 µM
  TGI: > 25 µM
A498 renal
  GI50: > 25 µM
  TGI: > 25 µM
SR leukemia
  GI50: > 25 µM
  TGI: > 25 µM
TK-10 renal
  GI50: > 25 µM
  TGI: > 25 µM
NCI-H460 lung
  GI50: > 25 µM
  TGI: > 25 µM
T-47D breast
  GI50: > 25 µM
  TGI: > 25 µM
SNB-19 CNS
  GI50: > 25 µM
  TGI: > 25 µM
M14 melanoma
  GI50: > 25 µM
  TGI: > 25 µM
UACC-62 melanoma
  GI50: > 25 µM
  TGI: > 25 µM
PC-3 prostate
  GI50: > 25 µM
  TGI: > 25 µM
NCI-H23 lung
  GI50: > 25 µM
  TGI: > 25 µM
HT29 colon
  GI50: > 25 µM
  TGI: > 25 µM
HCC-2998 colon
  GI50: > 25 µM
  TGI: > 25 µM
HCT-15 colon
  GI50: > 25 µM
  TGI: > 25 µM
MALME-3M melanoma
  GI50: > 25 µM
  TGI: > 25 µM
SF-539 CNS
  GI50: > 25 µM
  TGI: > 25 µM
UACC-257 melanoma
  GI50: > 25 µM
  TGI: > 25 µM
SK-MEL-5 melanoma
  GI50: > 25 µM
  TGI: > 25 µM
CAKI-1 renal
  GI50: > 25 µM
  TGI: > 25 µM
MDA-MB-231 breast
  GI50: > 25 µM
  TGI: > 25 µM
KM12 colon
  GI50: > 25 µM
  TGI: > 25 µM
SW-620 colon
  GI50: > 25 µM
  TGI: > 25 µM
MOLT-4 leukemia
  GI50: > 25 µM
  TGI: > 25 µM
COLO 205 colon
  GI50: > 25 µM
  TGI: > 25 µM
OVCAR-5 ovarian
  GI50: > 25 µM
  TGI: > 25 µM
HL-60(TB) leukemia
  GI50: > 25 µM
  TGI: > 25 µM
SN12C renal
  GI50: > 25 µM
  TGI: > 25 µM
ACHN renal
  GI50: > 25 µM
  TGI: > 25 µM
OVCAR-8 ovarian
  GI50: > 25 µM
  TGI: > 25 µM
SK-MEL-28 melanoma
  GI50: > 25 µM
  TGI: > 25 µM
HCT-116 colon
  GI50: > 25 µM
  TGI: > 25 µM
IGROV1 ovarian
  GI50: > 25 µM
  TGI: > 25 µM
SK-MEL-2 melanoma
  GI50: > 25 µM
  TGI: > 25 µM
OVCAR-3 ovarian
  GI50: > 25 µM
  TGI: > 25 µM
LOX IMVI melanoma
  GI50: > 25 µM
  TGI: > 25 µM
DU-145 prostate
  GI50: > 25 µM
  TGI: > 25 µM
K-562 leukemia
  GI50: > 25 µM
  TGI: > 25 µM
SF-268 CNS
  GI50: > 25 µM
  TGI: > 25 µM
CCRF-CEM leukemia
  GI50: > 25 µM
  TGI: > 25 µM
BT-549 breast
  GI50: > 25 µM
  TGI: > 25 µM
NCI-H522 lung
  GI50: > 25 µM
  TGI: > 25 µM
MCF7 breast
  GI50: > 25 µM
  TGI: > 25 µM
786-0 renal
  GI50: > 25 µM
  TGI: > 25 µM
SF-295 CNS
  GI50: > 25 µM
  TGI: > 25 µM
A549 NSCLC
  GI50: > 25 µM
  TGI: > 25 µM
RPMI-8226 leukemia
  GI50: > 25 µM
  TGI: > 25 µM
HOP-92 NSCLC
  GI50: > 25 µM
  TGI: > 25 µM
NCI/ADR-RES ovarian
  GI50: > 25 µM
  TGI: > 25 µM
HS 578T breast
  GI50: > 25 µM
  TGI: > 25 µM
SK-OV-3 ovarian
  GI50: > 25 µM
  TGI: > 25 µM
